Among the data in patent publication US5760063A, “Arylhydrazone derivatives useful as antibacterial agents” (Scriptgen Pharmaceuticals, Inc., priority 1996, dated 1998) are MIC and IC50 values, retold here.

The structures appear in SMILES notation. pIC50: −log10 of the molar value. In brackets after ≈: the same amount, converted by molar mass.

The subject of assay [1] is Psuedomonas aeruginosa. As to the kind of experiment: MIC assay, Psuedomonas aeruginosa (PS). It is filed as cell-based. Conditions: OD 595 nm after 18 hours. The procedure: (§1) Compounds were prepared to a concentration of 10 mM in 100% DMSO. These were then diluted to 200 μM with 50 mM tris. A 2% DMSO solution was prepared in 50 mM tris as well as a 20 μM solution of rifampicin in 2% DMSO with 50 mM tris. With each compound and control, one to one dilutions were made in a serial dilution fashion across microtiter plates with 50 mM tris. The highest concentration was 200 μM for each compound and 20 μM for rifampicin. The lowest concentrations were 1.562 μM and 0.156 μM for the compounds and rifampicin respectively.
(§2) S. aureus, E. coli, Psuedomonas aeruginosa, Enterobacter cloacae, and Enterococcus faecium cells had been grown up in a shake culture overnight at 37° C. in LB medium. These were diluted 500 fold and added to the compounds at an equal volume. The highest compound concentration was now 100 μM, and 10 μM for rifampicin. Baseline O.D. readings were taken at 595 nm utilizing a Bio-Rad 3550-UV plate reader. A second reading was taken after 18 hours.

Assay [2] deals with E. coli RNAP (Escherichia coli, UniProt P0A8T7+P0A8V2). As to the kind of experiment: High throughput in vitro transcription (RNAP) assay. The format is biochemical. To be noted: 60 minutes incubation. Here is the method:
(I) High Throughput in vitro Transcription (RNAP) Assay
The reagents are added to the DMSO/compound with a Tomtec Quadra. The Quadra acts as 96-tip pipetman, combined with a movable base. The reagents and compounds are stored and used in 96-well polypropylene u-bottom microtiter plates.
The Quadra is run in backfill mode (filled with water). A total of […] of reagents must be added. This is divided into a 20 ml RNAP/Txn Buffer mix and a 25 ml DNA/NTP/water mix. The RNAP mix is added first to allow the drug a chance to interact with RNAP before RNAP interacts with DNA (this interaction lasts less than 5 seconds). The mixing of the reagents is done with a multivortexer after all reagents have been added (setting 5.5 for 90 seconds).
After incubation for 60 minutes, the reaction is stopped with 150 ml 10% TCA, which also precipitates the RNA. The RNA is allowed to sit a room temperature for approximately 15-45 minutes (until all plates have been stopped and the cell harvester has been set up).
The TCA precipitated RNA is transferred to double-thick glass filtermats using a Tomtec cell harvester. The wells of the microtiter plate are washed with 5% TCA and sucked through the same filtermat. Two additional washes with 5 % TCA solution are sufficient to reduce background counts.
The filters are then dried at 60° for 60 minutes. It is important to remove all of the liquid, or this may quench the scintillation fluid when it is added.
The dry filters are sealed into plastic bags with a heat-sealer. A hole is cut in one corner and 12 ml of "β-plate scintillant" is added to each bag.
When choosing a scintillation counting program on the Wallac Microb 1450, it is important to choose one which counts using the appropriate window for P^32. Each well is counted for 3 seconds. The data obtained is used to calculate an lC50 value.

The subject of assay [3] is Enterococcus faecium. As to the kind of experiment: MIC assay, Enterococcus faecium (FAE). It is filed as cell-based. To be noted: OD 595 nm after 18 hours. Here is the method: as §1, §2
Assay [4] concerns S. aureus. Briefly: MIC assay, S. aureus. The format is cell-based. To be noted: Staphylococcus aureus, 18 h, read-out: S. Aur. MIC. The procedure: as §1, §2
The test system of assay [5] is Enterobacter cloacae. Briefly: MIC assay, Enterobacter cloacae (CL). To be noted: OD 595 nm after 18 hours. It is filed as cell-based. The procedure:
as §1, §2

E. coli RNAP, sequence (P0A8V2 whole entry): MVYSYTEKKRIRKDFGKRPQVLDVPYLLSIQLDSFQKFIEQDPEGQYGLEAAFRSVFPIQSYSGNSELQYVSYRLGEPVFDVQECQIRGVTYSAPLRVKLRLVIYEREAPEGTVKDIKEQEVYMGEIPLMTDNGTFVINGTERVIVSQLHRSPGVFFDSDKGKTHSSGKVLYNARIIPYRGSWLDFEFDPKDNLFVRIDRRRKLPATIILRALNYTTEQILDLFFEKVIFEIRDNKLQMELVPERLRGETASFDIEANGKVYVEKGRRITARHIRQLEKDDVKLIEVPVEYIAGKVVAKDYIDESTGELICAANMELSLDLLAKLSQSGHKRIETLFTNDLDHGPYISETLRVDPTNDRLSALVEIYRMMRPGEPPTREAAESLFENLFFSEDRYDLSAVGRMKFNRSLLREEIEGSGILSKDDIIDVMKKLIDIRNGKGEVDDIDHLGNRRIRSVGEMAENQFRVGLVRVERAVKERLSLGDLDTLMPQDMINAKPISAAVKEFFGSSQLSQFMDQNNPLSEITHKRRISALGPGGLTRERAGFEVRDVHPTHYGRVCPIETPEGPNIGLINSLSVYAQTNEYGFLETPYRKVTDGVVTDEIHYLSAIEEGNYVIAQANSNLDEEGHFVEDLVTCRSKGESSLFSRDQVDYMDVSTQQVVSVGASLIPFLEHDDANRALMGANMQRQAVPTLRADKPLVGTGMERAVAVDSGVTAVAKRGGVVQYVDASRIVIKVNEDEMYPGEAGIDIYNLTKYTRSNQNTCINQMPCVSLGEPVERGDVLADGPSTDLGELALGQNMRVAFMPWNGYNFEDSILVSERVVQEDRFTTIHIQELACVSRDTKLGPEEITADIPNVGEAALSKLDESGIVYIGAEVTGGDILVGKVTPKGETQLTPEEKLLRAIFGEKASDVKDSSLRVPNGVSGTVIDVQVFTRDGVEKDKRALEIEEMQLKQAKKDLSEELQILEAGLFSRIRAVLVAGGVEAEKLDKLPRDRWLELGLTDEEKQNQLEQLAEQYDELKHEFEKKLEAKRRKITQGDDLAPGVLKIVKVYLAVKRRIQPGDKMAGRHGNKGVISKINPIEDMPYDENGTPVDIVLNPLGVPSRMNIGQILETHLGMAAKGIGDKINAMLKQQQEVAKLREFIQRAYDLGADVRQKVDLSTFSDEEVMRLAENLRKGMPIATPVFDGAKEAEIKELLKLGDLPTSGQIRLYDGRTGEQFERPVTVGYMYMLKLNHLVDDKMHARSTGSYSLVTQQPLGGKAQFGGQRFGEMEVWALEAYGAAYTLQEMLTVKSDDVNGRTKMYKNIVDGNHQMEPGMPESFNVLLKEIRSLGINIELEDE
E. coli RNAP, sequence (P0A8T7 whole entry): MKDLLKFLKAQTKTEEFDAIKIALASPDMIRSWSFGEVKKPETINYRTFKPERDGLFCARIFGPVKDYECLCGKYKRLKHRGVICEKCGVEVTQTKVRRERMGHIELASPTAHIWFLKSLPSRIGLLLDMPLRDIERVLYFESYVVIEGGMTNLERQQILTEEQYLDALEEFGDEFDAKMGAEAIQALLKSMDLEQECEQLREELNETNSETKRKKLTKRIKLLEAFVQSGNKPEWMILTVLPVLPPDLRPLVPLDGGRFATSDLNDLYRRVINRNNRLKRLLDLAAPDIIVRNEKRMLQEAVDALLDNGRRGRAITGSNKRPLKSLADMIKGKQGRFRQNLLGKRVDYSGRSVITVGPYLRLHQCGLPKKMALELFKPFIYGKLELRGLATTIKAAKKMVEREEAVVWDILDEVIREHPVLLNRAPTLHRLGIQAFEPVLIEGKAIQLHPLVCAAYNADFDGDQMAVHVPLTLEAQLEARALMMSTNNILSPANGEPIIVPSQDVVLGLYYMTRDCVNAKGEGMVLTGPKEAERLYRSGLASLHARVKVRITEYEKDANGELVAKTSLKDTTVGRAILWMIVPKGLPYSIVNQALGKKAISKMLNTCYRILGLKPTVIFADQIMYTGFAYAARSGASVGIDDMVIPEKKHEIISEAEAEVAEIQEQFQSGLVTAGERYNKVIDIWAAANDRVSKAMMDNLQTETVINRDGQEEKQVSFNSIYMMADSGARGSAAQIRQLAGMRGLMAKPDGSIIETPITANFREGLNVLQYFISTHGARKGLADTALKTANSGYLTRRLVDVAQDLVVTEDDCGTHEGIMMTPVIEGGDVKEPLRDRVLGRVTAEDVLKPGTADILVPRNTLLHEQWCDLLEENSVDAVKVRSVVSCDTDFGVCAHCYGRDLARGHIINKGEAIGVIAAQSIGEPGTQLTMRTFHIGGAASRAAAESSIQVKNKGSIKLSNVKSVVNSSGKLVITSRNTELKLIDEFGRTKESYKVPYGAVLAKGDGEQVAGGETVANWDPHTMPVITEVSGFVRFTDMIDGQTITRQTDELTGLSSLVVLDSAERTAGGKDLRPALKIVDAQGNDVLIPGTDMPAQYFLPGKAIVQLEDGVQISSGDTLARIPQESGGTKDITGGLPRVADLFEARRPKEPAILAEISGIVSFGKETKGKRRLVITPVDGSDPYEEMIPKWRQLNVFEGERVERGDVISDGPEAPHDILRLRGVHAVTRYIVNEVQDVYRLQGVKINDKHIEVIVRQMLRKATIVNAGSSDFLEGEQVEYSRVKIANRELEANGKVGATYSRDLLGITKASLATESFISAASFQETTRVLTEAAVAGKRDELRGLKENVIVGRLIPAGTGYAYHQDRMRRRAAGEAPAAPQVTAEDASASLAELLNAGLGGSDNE
E. coli RNAP, sequence (P0A7Z4 whole entry partner): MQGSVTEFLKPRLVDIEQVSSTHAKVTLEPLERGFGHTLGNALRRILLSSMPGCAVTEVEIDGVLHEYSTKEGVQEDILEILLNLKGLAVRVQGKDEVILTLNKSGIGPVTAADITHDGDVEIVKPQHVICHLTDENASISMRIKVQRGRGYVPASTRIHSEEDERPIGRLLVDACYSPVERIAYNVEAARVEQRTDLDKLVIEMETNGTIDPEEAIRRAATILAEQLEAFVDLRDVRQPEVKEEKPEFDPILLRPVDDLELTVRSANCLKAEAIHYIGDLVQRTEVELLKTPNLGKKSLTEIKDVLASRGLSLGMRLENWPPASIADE

With `CS(=O)(=O)c1ccc(NN=C(C#N)C(=O)c2ccc(Cl)cc2)cc1` [Example 1], the MIC in assay [1] is over 10 µM; in assay [3], over 10 µM; in assay [4], over 10 µM; in assay [5], under 0.5 µM. The compound also had a negative logarithm of the IC50 (pIC50) in assay [2] of over 6.30.

As to `CS(=O)(=O)C(=NNc1ccc([N+](=O)[O-])cc1)C(=O)c1ccc(Cl)cc1` [Example 2], the results for the MIC in assay [1], in assay [3] and in assay [5] were over 10 µM, over 10 µM and 0.5 to 10 µM (≈ 0.191 to 3.82 µg/mL), respectively. Further, the pIC50 in assay [2] was 5.00 to 6.30.

As for `CC(=O)N(N=C(C#N)C(=O)c1ccc(Cl)cc1)c1ccc([N+](=O)[O-])cc1` [Example 3], the minimum inhibitory concentration (MIC) in assay [1] was over 10 µM; in assay [3], over 10 µM; in assay [4], over 10 µM; in assay [5] it was 0.5 to 10 µM (≈ 0.185 to 3.71 µg/mL). For the same compound, the pIC50 in assay [2] is 5.00 to 6.30.

Turning to `CSc1ccc(NN=C(C#N)C(=O)c2ccc(Cl)cc2)cc1` [Example 4], the MIC in assay [1] was over 10 µM; in assay [3], over 10 µM; in assay [4], over 10 µM; in assay [5] it was 0.5 to 10 µM (≈ 0.165 to 3.3 µg/mL). In assay [2], this compound gave a negative logarithm of the IC50 (pIC50) of 5.00 to 6.30.

Turning to `C[S+]([O-])c1ccc(NN=C(C#N)C(=O)c2ccc(Cl)cc2)cc1` (stereo not shown) [Example 5], the MIC is over 10 µM in assay [1], over 10 µM in assay [3], over 10 µM in assay [4] and 0.5 to 10 µM (≈ 0.173 to 3.46 µg/mL) in assay [5]. Further, the pIC50 in assay [2] was 5.00 to 6.30.

As for `N#CC(=NNc1ccc([N+](=O)[O-])cc1)C(=O)c1ccc(-c2ccccc2)cc1` [Example 6], the MIC in assay [1] is over 10 µM; in assay [3], 1 µM (≈ 0.37 µg/mL); in assay [4] it was over 10 µM; in assay [5], 0.5 to 10 µM (≈ 0.185 to 3.7 µg/mL). In assay [2], the negative-log IC50 (pIC50) was 5.00 to 6.30.

Turning to `CS(=O)(=O)Nc1ccc(NN=C(C#N)C(=O)c2ccc(Cl)cc2)cc1` [Example 7], the MIC in assay [1] was over 10 µM; in assay [3], over 10 µM; in assay [5] it was 0.5 to 10 µM (≈ 0.188 to 3.77 µg/mL). The compound also showed a negative-log IC50 (pIC50) in assay [2] of 5.00 to 6.30.

In assay [2], `N#CC(=NNc1ccc([N+](=O)[O-])cc1)C(=O)c1ccc(Cl)nc1` [Example 8] gave a pIC50 of 5.00 to 6.30.

`N#CC(=NNc1ccc(C(=O)O)cc1)C(=O)c1ccc(Cl)cc1` [Example 9]: the MIC in assay [1], in assay [3] and in assay [5] was over 10 µM each time. The compound also gave a pIC50 in assay [2] of under 5.00.

Take `CC(=O)Nc1ccc(NN=C(C#N)C(=O)c2ccc(Cl)cc2)cc1` [Example 10]: the MIC in assay [1], in assay [3] and in assay [5] was over 10 µM each time. This compound had a pIC50 in assay [2] of under 5.00.

Turning to `CS(=O)(=O)c1ccc(NN=C(C#N)C(=O)c2ccc(-c3ccccc3)cc2)cc1` [Example 11], the MIC in assay [1], in assay [3] and in assay [5] was over 10 µM each time. The same compound had a pIC50 in assay [2] of under 5.00.

In the case of `N#CC(=NNc1ccc(Cl)cc1)C(=O)c1ccc(-c2ccccc2)cc1` [Example 13], the MIC in assay [1], in assay [3], in assay [4] and in assay [5] was over 10 µM in each case. The pIC50 in assay [2] was under 5.00.

In the case of `CC(=O)N(N=C(C#N)C(=O)c1ccc(Cl)cc1)c1ccc(Cl)cc1` [Example 14], the MIC in assay [1] was over 10 µM; in assay [3], over 10 µM; in assay [4], over 10 µM; in assay [5], 0.5 to 10 µM (≈ 0.18 to 3.6 µg/mL). In assay [2], this compound gave a pIC50 of under 5.00.

Regarding `Cc1c(C(=O)C(C#N)=NNc2ccc([N+](=O)[O-])cc2)sc2ccc(Cl)cc12` [Example 15], the MIC in assay [1] was over 10 µM; in assay [3], 0.5 to 10 µM (≈ 0.199 to 3.99 µg/mL); in assay [4] it was over 10 µM; in assay [5] it was under 0.5 µM. This compound also gave a pIC50 in assay [2] of over 6.30.

As to `Cc1c(C(=O)C(C#N)=NNc2ccc(C(C)C)cc2)sc2ccc(Cl)cc12` [Example 16], the minimum inhibitory concentration (MIC) in assay [1] is over 10 µM; in assay [3], over 10 µM; in assay [4], over 10 µM; in assay [5] it was 0.5 to 10 µM (≈ 0.198 to 3.96 µg/mL). The same compound showed a pIC50 in assay [2] of 5.00 to 6.30.

With `N#CC(=NNc1ccc([N+](=O)[O-])cc1)C(=O)c1ccc(Cl)cc1` [Example 17, 2-(4-nitrophenyl)hydrazono-3-oxo-3-(4-chlorophenyl)propionitrile], the MIC is over 10 µM in assay [1], under 0.5 µM in assay [3], 0.5 to 10 µM (≈ 0.164 to 3.29 µg/mL) in assay [4] and under 0.5 µM in assay [5]. Moreover, the pIC50 in assay [2] was over 6.30.

With `N#CC(=NNc1ccc(OC(F)(F)F)cc1)C(=O)c1ccc(Cl)cc1` [Example 18], the minimal inhibitory concentration (MIC) in assay [1] was over 10 µM; in assay [3] it was 0.5 to 10 µM (≈ 0.184 to 3.68 µg/mL); in assay [4] it was 0.5 to 10 µM (≈ 0.184 to 3.68 µg/mL); in assay [5], 0.5 to 10 µM (≈ 0.184 to 3.68 µg/mL). In assay [2], this compound showed a pIC50 of 5.00 to 6.30.

With `N#CC(=NNc1ccc(Cl)cc1)C(=O)c1ccc(Cl)cc1` [Example 19], the MIC in assay [1] was over 10 µM; in assay [3] it was over 10 µM; in assay [4], over 10 µM; in assay [5], 0.5 to 10 µM (≈ 0.159 to 3.18 µg/mL). For the same compound, in assay [2], the pIC50 was 5.00 to 6.30.

For the compound `N#CC(=NNc1cc(C(F)(F)F)cc(C(F)(F)F)c1)C(=O)c1ccccc1` [Example 20], the MIC in assay [1] is over 10 µM; in assay [3] it was over 10 µM; in assay [4], 0.5 to 10 µM (≈ 0.193 to 3.85 µg/mL); in assay [5], 0.5 to 10 µM (≈ 0.193 to 3.85 µg/mL). Further, the negative-log IC50 (pIC50) in assay [2] is 5.00 to 6.30.

On to `N#CC(=NNc1ccc(F)cc1)C(=O)c1ccc(OC(F)(F)F)cc1` [Example 21], for which the minimal inhibitory concentration (MIC) in assay [1] is over 10 µM; in assay [3], over 10 µM; in assay [4] it was 0.5 to 10 µM (≈ 0.176 to 3.51 µg/mL); in assay [5] it was 0.5 to 10 µM (≈ 0.176 to 3.51 µg/mL). Moreover, in assay [2], the pIC50 was 5.00 to 6.30.

As for `N#CC(=NNc1ccc([N+](=O)[O-])cc1)C(=O)c1cccc(Cl)c1` [Example 22], the minimal inhibitory concentration (MIC) in assay [1], in assay [3] and in assay [5] was over 10 µM in each case. Also, in assay [2], the negative logarithm of the IC50 (pIC50) is under 5.00.

On to `N#CC(=NNc1ccc([N+](=O)[O-])cc1)C(=O)c1ccccc1` [Example 23], for which the MIC in assay [1] was over 10 µM; in assay [3] it was over 10 µM; in assay [4], 0.5 to 10 µM (≈ 0.147 to 2.94 µg/mL); in assay [5] it was 0.5 to 10 µM (≈ 0.147 to 2.94 µg/mL). This compound also gave a negative logarithm of the IC50 (pIC50) in assay [2] of under 5.00.

A word on the MIC: it is the lowest concentration that inhibits growth of the organism. Usually pIC50 stands for the negative decadic logarithm of the IC50, by convention in mol/L. Read a low pIC50 as a large IC50.
